In ChEMBL document CHEMBL4308854, “Novel indole-thiazolidinone conjugates: Design, synthesis and whole-cell phenotypic evaluation as a novel class of antimicrobial agents” (Eur J Med Chem, 2018):
Values after ≈ are worked out from the molar mass of the structure shown.

Tests used:
[1] = Selectivity index, ratio of GI50 for mouse RAW264.7 cells to MIC for Mycobacterium aurum infected in mouse RAW264.7 cells; format: toxicity, cell-based; details: read-out: Selectivity Index
Pseudomonas aeruginosa [2] = test: Potency index, ratio of ciprofloxacin MIC to compound MIC for Pseudomonas aeruginosa RCMB 010043; format: functional
[3] = Stability in mouse RAW264.7 cells measured after 48 hrs; format: ADME, cell-based; details: raw264.7, 48 h
[4] = test system: Mycobacterium tuberculosis; test: Antitubercular activity against Mycobacterium tuberculosis RCMB 010126 clinical isolate after 4 days by microplate alamar blue assay; format: functional; details: for MIC: Mycobacterium tuberculosis, RCMB 010126, 96 h
Staphylococcus aureus [5] = test: Antibacterial activity against Staphylococcus aureus RCMB 010028 after 24 hrs by serial dilution method; format: functional; details: RCMB 010028, 24 h
Staphylococcus aureus [6] = test: Antibacterial activity against Staphylococcus aureus RCMB 010028 assessed as diameter of zone inhibition after 24 hrs by agar well diffusion assay; format: functional
Candida albicans [7] = test: Antifungal activity against Candida albicans RCMB 05036 after 24 hrs by serial dilution method; format: functional; details: RCMB 05036, 24 h
Pseudomonas aeruginosa [8] = test: Antibacterial activity against Pseudomonas aeruginosa RCMB 010043 assessed as diameter of zone inhibition after 24 hrs by agar well diffusion assay; format: functional
Mycolicibacterium aurum = test: Antitubercular activity against Mycobacterium aurum infected in mouse RAW264.7 cells measured after 48 hrs; format: functional
Candida albicans [9] = test: Antifungal activity against Candida albicans RCMB 05036 assessed as diameter of zone inhibition after 48 hrs by agar well diffusion assay; format: functional
[10] = Cytotoxicity against mouse RAW264.7 cells; format: cell-based
Escherichia coli [11] = test: Antibacterial activity against Escherichia coli RCMB 010052 after 24 hrs by serial dilution method; format: functional; details: RCMB 010052, 24 h
Aspergillus fumigatus [12] = test: Antifungal activity against Aspergillus fumigatus RCMB 02568 after 24 hrs by serial dilution method; format: functional; details: RCMB 02568, 24 h
Escherichia coli [13] = test: Antibacterial activity against Escherichia coli RCMB 010052 assessed as diameter of zone inhibition after 24 hrs by agar well diffusion assay; format: functional
Aspergillus fumigatus [14] = test: Antifungal activity against Aspergillus fumigatus RCMB 02568 assessed as diameter of zone inhibition after 48 hrs by agar well diffusion assay; format: functional
Pseudomonas aeruginosa [15] = test: Antibacterial activity against Pseudomonas aeruginosa RCMB 010043 after 24 hrs by serial dilution method; format: functional; details: RCMB 010043, 24 h
[16] = test system: Mycobacterium tuberculosis; test: Potency index, ratio of isoniazid MIC to compound MIC for antitubercular activity against Mycobacterium tuberculosis RCMB 010126 clinical isolate; format: functional
Escherichia coli [17] = test: Potency index, ratio of ciprofloxacin MIC to compound MIC for Escherichia coli RCMB 010052; format: functional
Staphylococcus aureus [18] = test: Potency index, ratio of ciprofloxacin MIC to compound MIC for Staphylococcus aureus RCMB 010028; format: functional
Aspergillus fumigatus [19] = test: Potency index, ratio of amphotericin B MIC to compound MIC for antifungal activity against Aspergillus fumigatus RCMB 02568; format: functional
Staphylococcus aureus [20] = test: Antibacterial activity against methicillin-resistant Staphylococcus aureus ATCC 33592 after 24 hrs by serial dilution method; format: functional; details: ATCC 33592, 24 h
Aspergillus fumigatus [21] = test: Potency index, ratio of amphotericin B MIC to compound MIC for Aspergillus fumigatus RCMB 02568; format: functional
Enterococcus faecium = test: Antibacterial activity against vancomycin-resistant Enterococcus faecium ATCC 700221 after 24 hrs by serial dilution method; format: functional; details: ATCC 700221, 24 h

SMILES	selectivity ratio [1]	Ratio (Pseudomonas aeruginosa [2])	Stability [3]	inhibition (INH) [4]	MIC [4]	MIC (Staphylococcus aureus [5])	diameter of the inhibition zone (DIZ) (Staphylococcus aureus [6])	MIC (Candida albicans [7])	diameter of the inhibition zone (DIZ) (Pseudomonas aeruginosa [8])	MIC (Mycolicibacterium aurum)	diameter of the inhibition zone (DIZ) (Candida albicans [9])	GI50 [10]	MIC (Escherichia coli [11])	MIC (Aspergillus fumigatus [12])	diameter of the inhibition zone (DIZ) (Escherichia coli [13])	diameter of the inhibition zone (DIZ) (Aspergillus fumigatus [14])	MIC (Pseudomonas aeruginosa [15])	Ratio (Escherichia coli [17])	Ratio (Staphylococcus aureus [18])	Ratio (Aspergillus fumigatus [19])	also measured
CCOC(=O)c1sc(/N=C2\NC(=O)/C(=C3/C(=O)N(C)c4ccccc43)S2)nc1C	2.5	2	Stable	76.35%	0.39 µg/mL (≈ 0.91 µM)	1.95 µg/mL (≈ 4.55 µM)	21.8 mm	0.98 µg/mL (≈ 2.29 µM)	21.5 mm	200 µg/mL (≈ 467 µM)	22.4 mm	500 µg/mL (≈ 1170 µM)	1.95 µg/mL (≈ 4.55 µM)	1.95 µg/mL (≈ 4.55 µM)	21.5 mm	21.6 mm	1.95 µg/mL (≈ 4.55 µM)	–	–	–	–
CCOC(=O)c1sc(/N=C2\NC(=O)/C(=C3/C(=O)Nc4ccc(OC)cc43)S2)nc1C	< 0.312	2	Stable	84.35%	0.39 µg/mL (≈ 0.877 µM)	0.98 µg/mL (≈ 2.2 µM)	22.7 mm	0.98 µg/mL (≈ 2.2 µM)	22.1 mm	> 200 µg/mL	23.3 mm	> 62.5 µg/mL	0.98 µg/mL (≈ 2.2 µM)	1.95 µg/mL (≈ 4.39 µM)	22.6 mm	22.1 mm	1.95 µg/mL (≈ 4.39 µM)	2	2	–	Ratio [16]: 2
CCOC(=O)c1sc(/N=C2\NC(=O)/C(=C3/C(=O)N(Cc4ccccc4)c4ccccc43)S2)nc1C	2.5	2	Stable	87.38%	0.39 µg/mL (≈ 0.773 µM)	1.95 µg/mL (≈ 3.86 µM)	24.2 mm	0.49 µg/mL (≈ 0.971 µM)	23.1 mm	200 µg/mL (≈ 396 µM)	25.2 mm	500 µg/mL (≈ 991 µM)	0.98 µg/mL (≈ 1.94 µM)	0.98 µg/mL (≈ 1.94 µM)	24.8 mm	23.2 mm	1.95 µg/mL (≈ 3.86 µM)	2	–	2	–
CN[C@H](CC(C)C)C(=O)N[C@H]1C(=O)N[C@@H](CC(N)=O)C(=O)N[C@H]2C(=O)N[C@H]3C(=O)N[C@H](C(=O)N[C@H](C(=O)O)c4cc(O)cc(O)c4-c4cc3ccc4O)[C@H](O)c3ccc(c(Cl)c3)Oc3cc2cc(c3O[C@@H]2O[C@H](CO)[C@@H](O)[C@H](O)[C@H]2O[C@H]2C[C@](C)(N)[C@H](O)[C@H](C)O2)Oc2ccc(cc2Cl)[C@H]1O [VANCOMYCIN]	–	–	–	–	–	–	–	–	–	–	–	–	–	–	–	–	–	–	–	–	MIC (Staphylococcus aureus [20]): 1.95 µg/mL (≈ 1.35 µM)
CC(=O)c1sc(/N=C2\NC(=O)/C(=C3/C(=O)Nc4ccc(Cl)cc43)S2)nc1C	–	4	–	74.32%	0.78 µg/mL (≈ 1.86 µM)	0.98 µg/mL (≈ 2.34 µM)	22.1 mm	0.49 µg/mL (≈ 1.17 µM)	22.5 mm	–	24.2 mm	–	0.49 µg/mL (≈ 1.17 µM)	0.98 µg/mL (≈ 2.34 µM)	24.3 mm	22.9 mm	0.98 µg/mL (≈ 2.34 µM)	4	2	2	Ratio (Aspergillus fumigatus [21]): 2
CC(=O)c1sc(/N=C2\NC(=O)/C(=C3/C(=O)N(Cc4ccccc4)c4ccc(Cl)cc43)S2)nc1C	–	4	–	80.34%	0.39 µg/mL (≈ 0.766 µM)	0.98 µg/mL (≈ 1.93 µM)	23.6 mm	0.49 µg/mL (≈ 0.963 µM)	23.5 mm	–	25.3 mm	–	0.49 µg/mL (≈ 0.963 µM)	0.98 µg/mL (≈ 1.93 µM)	25.6 mm	23.6 mm	0.98 µg/mL (≈ 1.93 µM)	4	2	2	Ratio [16]: 2; Ratio (Aspergillus fumigatus [21]): 2
CCOC(=O)c1sc(/N=C2\NC(=O)/C(=C3/C(=O)Nc4ccccc43)S2)nc1C	1.25	2	Stable	72.14%	0.78 µg/mL (≈ 1.88 µM)	0.98 µg/mL (≈ 2.36 µM)	22.5 mm	0.98 µg/mL (≈ 2.36 µM)	21.8 mm	100 µg/mL (≈ 241 µM)	22.7 mm	125 µg/mL (≈ 302 µM)	1.95 µg/mL (≈ 4.7 µM)	0.98 µg/mL (≈ 2.36 µM)	22.4 mm	21.6 mm	1.95 µg/mL (≈ 4.7 µM)	–	–	2	–
CCOC(=O)c1sc(/N=C2\NC(=O)/C(=C3/C(=O)Nc4ccc(Cl)cc43)S2)nc1C	< 0.625	4	Stable	56.34%	0.39 µg/mL (≈ 0.869 µM)	0.98 µg/mL (≈ 2.18 µM)	23.1 mm	0.49 µg/mL (≈ 1.09 µM)	22.6 mm	> 200 µg/mL	24.4 mm	> 125 µg/mL	0.98 µg/mL (≈ 2.18 µM)	1.95 µg/mL (≈ 4.34 µM)	23.2 mm	22.7 mm	0.98 µg/mL (≈ 2.18 µM)	2	2	–	Ratio [16]: 2; Ratio (Aspergillus fumigatus [21]): 2
O=C(O)c1cn(C2CC2)c2cc(N3CCNCC3)c(F)cc2c1=O [CIPROFLOXACIN]	–	–	–	–	–	1.95 µg/mL (≈ 5.89 µM)	22.2 mm	–	23.1 mm	–	–	–	1.95 µg/mL (≈ 5.89 µM)	–	24.3 mm	–	3.9 µg/mL (≈ 11.8 µM)	–	–	–	MIC (Enterococcus faecium): 3.9 µg/mL (≈ 11.8 µM)
